Results: patent US8501090B2, “Anti-microbial gas apparatus and method” (priority 2008, dated 2013)

Tested on: bacteria on healthy skin (back of the hand)
Assay: Anti-microbial effectiveness of nitric oxide on volunteers' hands (swab, five zone dilution on agar, zone-based grading)
Assay type: in vivo
Description: An experiment 46 used to determine the anti-microbial effectiveness of nitric oxide is illustrated in FIG. 3. In the experiment, five volunteers were selected 48. From a first hand of each volunteer, a technician using sterile gloves collected 50 a sample. This was accomplished by rubbing the back of the volunteer's hand with a sterile cotton collection swab for ten seconds. The swab was then applied 52 to a nutrient agar petri dish using the five corner or zone dilution method.
The five corner or zone dilution method involves mechanically diluting bacteria on a streak (blood agar) plate by sequentially spreading the bacteria across the plate in each of five zones. As the concentration of bacteria increases so do the number of zones containing bacteria. Bacteria on agar plate become visible as distinct circular colonies. Each colony represents an individual cell which has divided repeatedly to form a patch. The number of bacteria can be estimated by counting the number of patches or how far the bacteria is diluted by streaking it on the agar plate through the five zones.
After the sample was collected 50, the first hand was cleaned 54 using nitric oxide. This was done by placing the hand of the volunteer into a one-gallon plastic freezer bag. The bag was then inflated with nitric oxide through tubing attached to a portable nitric oxide generator. The open end of the bag was taped closed against the volunteer's forearm. A nitric oxide monitor assisted in keeping the nitric oxide concentration within the bag at 1,000 parts-per-million (ppm).
The volunteer maintained the hand inside the bag for fifteen minutes. After the fifteen minutes, the hand was removed from the bag in a sterile manner (i.e., the hand was not permitted to contact any non-sterile objects). Using sterile gloves and a sterile cotton collection swab, the technician collected 56 a second sample by rubbing the swab on the back of the hand for ten seconds. The swab was then applied 58 to a nutrient dish as explained above.
A similar process was followed with the volunteer's other hand. […]

With `[N]=O` [nitric oxide] the “reductions in colony counts of bacteria” value (bacteria exposed to nitric oxide, microbes on healthy skin) was “substantial reductions in colony counts”, the anti-microbial effects (direct comparison: immersing in enclosed environment of nitric oxide diluted with ambient air vs scrubbing with antibacterial soaps) was “superior to soaps” and the bacterial colony count (hands exposed to 1,000 ppm nitric oxide for fifteen minutes, compared with hands washed with DIAL antibacterial soap for 2 minutes, five volunteers) was “lower bacterial colony count”.
